Like-named read-outs stand apart in the source and are kept apart here.
Tests used:
[1] = target: T1, AChE from electric eel (Electrophorus electricus) (Electrophorus electricus, UniProt O42275); assay: In vitro AChE inhibition, modified Ellman's method; assay type: biochemical
T1 construct: purchased Sigma, St. Louis, MO, USA
Description: (§1) The ability of all the prepared compounds to inhibit AChE from electric eel (Electrophorus electricus) and BChE from equine serum (both purchased from Sigma, St. Louis, MO, USA) was determined in vitro using a modified Ellman’s method, as described in detail elsewhere. This is a simple, rapid, and direct method to determine the SH and -S-S- group content in proteins. The enzyme activity is measured indirectly by quantifying the concentration of the 5-thio-2-nitrobenzoic acid ion formed in the reaction between the thiol reagent 5,5’-dithiobis-2nitrobenzoic acid (DTNB) and thiocholine, which is a product of acetylthiocholine hydrolysis catalyzed by cholinesterases. The effectiveness of the tested inhibitors is expressed as the IC50 values.
(§2) The enzyme activity in the final reaction mixture (2 mL) was 0.2 U/mL, the concentration of the substrate (acetylthiocholine or butyrythiocholine) was 40 µM, and the concentration of DTNB was 0.1 mM for all reactions. All reactions were carried out at 25 °C in the presence of phosphate-buffered saline (0.1 M, pH 7.4) in a glass cuvette with a 1 cm optical path. All the studied inhibitors were dissolved in DMSO (concentration 0.01 M) and then diluted in demineralized water as necessary. […] All measurements were carried out in triplicate, and the average values of the reaction rate (v0—reaction in the absence of the inhibitor, vi—reaction in the presence of the inhibitor) were used for construction of the dependence v0/vi vs. concentration of the inhibitor.

BChE from equine serum = target: T2, BChE from equine serum (Equus caballus, UniProt P81908); assay: In vitro BChE inhibition, modified Ellman's method; assay type: biochemical; details: for SI (index selectivity) = IC50 (AChE)/IC50 (BChE): ratio IC50 AChE/IC50 BChE
T2 construct: BChE from equine serum; purchased Sigma, St. Louis, MO, USA; host or cells: equine serum
T2 sequence (P81908 whole entry): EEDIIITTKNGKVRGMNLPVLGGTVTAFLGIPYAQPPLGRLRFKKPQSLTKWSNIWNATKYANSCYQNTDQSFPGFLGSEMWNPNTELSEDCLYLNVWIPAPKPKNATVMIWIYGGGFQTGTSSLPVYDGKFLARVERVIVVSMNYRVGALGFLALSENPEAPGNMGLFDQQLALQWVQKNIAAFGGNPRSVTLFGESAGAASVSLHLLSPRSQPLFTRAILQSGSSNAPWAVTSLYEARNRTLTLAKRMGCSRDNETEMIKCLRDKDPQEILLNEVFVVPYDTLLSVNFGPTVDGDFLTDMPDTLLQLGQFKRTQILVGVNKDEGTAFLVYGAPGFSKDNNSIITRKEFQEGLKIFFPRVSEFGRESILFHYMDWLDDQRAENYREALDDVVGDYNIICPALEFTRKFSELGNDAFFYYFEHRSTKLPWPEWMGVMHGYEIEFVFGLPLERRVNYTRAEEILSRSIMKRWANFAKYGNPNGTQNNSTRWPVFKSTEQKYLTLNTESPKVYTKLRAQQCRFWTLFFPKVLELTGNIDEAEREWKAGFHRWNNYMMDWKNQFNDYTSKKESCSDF
Description: as §1, §2

[2] = Determination of lipophilicity by RP-HPLC (capacity factor k); assay type: physicochemical; details: C18, isocratic MeOH 72%/H2O 28%, 40 °C
Description: The lipophilicity of all the target compounds was investigated by means of RP-HPLC determination of capacity factors k with a subsequent calculation of log k. The retention times of individual compounds were determined under isocratic conditions with methanol as an organic modifier in the mobile phase using end-capped non-polar C18 stationary RP columns.
The HPLC separation system Agilent 1200 series equipped with a DAD SL (Agilent Technologies) was used. A chromatographic column Symmetry® C18 5 μm, 4.6 × 250 mm, Part No. W21751W016 (Waters Corp., Milford, MA, USA) was applied. The HPLC separation process was monitored by the ChemStation for LC 3D chromatography software (Agilent Technologies). Isocratic elution by a mixture of MeOH p.a. (72%) and H2O-HPLC Mili-Q grade (28%) as a mobile phase was used for the determination of the capacity factor k. The total flow of the column was 1.0 mL/min, injection 20 μL, column temperature 40 °C, and sample temperature 10 °C. The detection wavelength of 210 nm was chosen. A KI methanolic solution was used for the determination of the dead times (tD). Retention times (tR) were measured in minutes. The capacity factors k were calculated according to the formula k = (tR − tD)/tD, where tR is the retention time of the solute and tD is the dead time obtained using an unretained analyte. Each experiment was repeated three times.

T1 sequence (O42275 24-633): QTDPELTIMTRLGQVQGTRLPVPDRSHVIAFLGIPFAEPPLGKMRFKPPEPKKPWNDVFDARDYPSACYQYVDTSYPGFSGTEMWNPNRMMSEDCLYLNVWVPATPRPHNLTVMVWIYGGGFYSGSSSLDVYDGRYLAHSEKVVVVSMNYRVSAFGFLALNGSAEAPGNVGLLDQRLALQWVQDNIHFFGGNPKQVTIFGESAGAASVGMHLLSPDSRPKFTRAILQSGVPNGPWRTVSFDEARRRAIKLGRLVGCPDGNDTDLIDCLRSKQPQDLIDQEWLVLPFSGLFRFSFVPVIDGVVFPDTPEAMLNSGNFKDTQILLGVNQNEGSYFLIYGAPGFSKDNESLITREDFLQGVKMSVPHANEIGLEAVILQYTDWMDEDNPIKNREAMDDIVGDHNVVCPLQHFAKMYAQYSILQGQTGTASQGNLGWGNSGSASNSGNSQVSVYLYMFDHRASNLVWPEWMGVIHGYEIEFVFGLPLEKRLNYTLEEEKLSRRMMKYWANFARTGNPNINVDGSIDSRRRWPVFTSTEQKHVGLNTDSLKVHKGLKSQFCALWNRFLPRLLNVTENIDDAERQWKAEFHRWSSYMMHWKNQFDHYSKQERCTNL

SMILES	IC50 ([1]; mean ± SD, n = 3, electric eel AChE, 25 °C, pH 7.4, read-out: IC50 AChE) [µM]	IC50 (BChE from equine serum) [µM]	SI (index selectivity) = IC50 (AChE)/IC50 (BChE) (BChE from equine serum)	IC50 [1] [µM]	log k [2]
O=C(Nc1ccc(C(=O)Nc2ccccc2OC(F)(F)F)c(O)c1)OCc1ccccc1	36.1				
O=C(Nc1ccc(C(=O)O)c(O)c1)OCc1ccccc1 [CbzPAS, 4-{[(Benzyloxy)carbonyl]amino}-2-hydroxybenzoic acid, reference compound]		137 ± 21.8	0.42	58.1 ± 1.04	
O=C(Nc1ccc(C(=O)Nc2ccccc2)c(O)c1)OCc1ccccc1 [Compound 1, Benzyl[3-hydroxy-4-(phenylcarbamoyl)phenyl]carbamate]		175 ± 5.85	0.37	65.2 ± 2.24	0.1160
COc1cccc(NC(=O)c2ccc(NC(=O)OCc3ccccc3)cc2O)c1 [Compound 3, Benzyl{3-hydroxy-4-[(3-methoxyphenyl)carbamoyl]phenyl}carbamate]		362 ± 8.12	0.19	69.3 ± 2	0.1280
COc1ccc(NC(=O)c2ccc(NC(=O)OCc3ccccc3)cc2O)cc1 [Compound 4, Benzyl{3-hydroxy-4-[(4-methoxyphenyl)carbamoyl]phenyl}carbamate]		154 ± 6.09	0.37	57.49 ± 0.08	0.1176
Cc1cccc(NC(=O)c2ccc(NC(=O)OCc3ccccc3)cc2O)c1 [Compound 5, Benzyl{3-hydroxy-4-[(3-methylphenyl)carbamoyl]phenyl}carbamate]		167 ± 10.2	0.42	70.2 ± 1.7	0.2725
O=C(Nc1ccc(C(=O)Nc2ccccc2F)c(O)c1)OCc1ccccc1 [Compound 6, Benzyl{4-[(2-fluorophenyl)carbamoyl]-3-hydroxyphenyl}carbamate]		70.8 ± 5.61	0.71	50.07 ± 0.06	0.3577
O=C(Nc1ccc(C(=O)Nc2cccc(F)c2)c(O)c1)OCc1ccccc1 [Compound 7, Benzyl{4-[(3-fluorophenyl)carbamoyl]-3-hydroxyphenyl}carbamate]		197.6 ± 1.36	0.34	66.6 ± 0.14	0.2303
O=C(Nc1ccc(C(=O)Nc2ccc(F)cc2)c(O)c1)OCc1ccccc1 [Compound 8, Benzyl{4-[(4-fluorophenyl)carbamoyl]-3-hydroxyphenyl}carbamate]		105.8 ± 0.43	0.45	47.4 ± 0.61	0.3924
O=C(Nc1ccc(C(=O)Nc2ccccc2Cl)c(O)c1)OCc1ccccc1 [Compound 9, Benzyl{4-[(2-chlorophenyl)carbamoyl]-3-hydroxyphenyl}carbamate]		140.1 ± 0.35	0.30	41.86 ± 0.15	0.5188
O=C(Nc1ccc(C(=O)Nc2cccc(Cl)c2)c(O)c1)OCc1ccccc1 [Compound 10, Benzyl{4-[(3-chlorophenyl)carbamoyl]-3-hydroxyphenyl}carbamate]		204 ± 7.49	0.30	61.6 ± 1.74	0.6411
O=C(Nc1ccc(C(=O)Nc2ccc(Cl)cc2)c(O)c1)OCc1ccccc1 [Compound 11, Benzyl{4-[(4-chlorophenyl)carbamoyl]-3-hydroxyphenyl}carbamate]		139 ± 6.86	0.56	78.2 ± 1.58	0.6399
O=C(Nc1ccc(C(=O)Nc2ccccc2C(F)(F)F)c(O)c1)OCc1ccccc1 [Compound 12, Benzyl(3-hydroxy-4-{[2-(trifluoromethyl)phenyl]carbamoyl}phenyl)carbamate]		33.6 ± 0.71	1.68	56.4 ± 1.26	0.4318
O=C(Nc1ccc(C(=O)Nc2cccc(C(F)(F)F)c2)c(O)c1)OCc1ccccc1 [Compound 13, Benzyl(3-hydroxy-4-{[3-(trifluoromethyl)phenyl]carbamoyl}phenyl)carbamate]		309 ± 8.06	0.23	70.67 ± 0.57	0.4477
O=C(Nc1ccc(C(=O)Nc2ccc(C(F)(F)F)cc2)c(O)c1)OCc1ccccc1 [Compound 14, Benzyl(3-hydroxy-4-{[4-(trifluoromethyl)phenyl]carbamoyl}phenyl)carbamate]		137 ± 21.9	0.52	71.4 ± 5.04	0.7408
O=C(Nc1ccc(C(=O)Nc2ccccc2OC(F)(F)F)c(O)c1)OCc1ccccc1 [Compound 15, Benzyl(3-hydroxy-4-{[2-(trifluoromethoxy)phenyl]carbamoyl}phenyl)carbamate]		44.3 ± 0.87	0.81	36 ± 1.48	0.6227
O=C(Nc1ccc(C(=O)Nc2cccc(F)c2F)c(O)c1)OCc1ccccc1 [Compound 16, Benzyl{4-[(2,3-difluorophenyl)carbamoyl]-3-hydroxyphenyl}carbamate]		200 ± 7	0.31	62.4 ± 1.42	0.4705
O=C(Nc1ccc(C(=O)Nc2ccc(F)cc2F)c(O)c1)OCc1ccccc1 [Compound 17, Benzyl{4-[(2,4-difluorophenyl)carbamoyl]-3-hydroxyphenyl}carbamate]		180 ± 7.04	0.44	79.2 ± 1.27	0.1912
O=C(Nc1ccc(C(=O)Nc2cc(F)ccc2F)c(O)c1)OCc1ccccc1 [Compound 18, Benzyl{4-[(2,5-difluorophenyl)carbamoyl]-3-hydroxyphenyl}carbamate]		157 ± 3.11	0.37	58.31 ± 0.2	0.4012
O=C(Nc1ccc(C(=O)Nc2c(F)cccc2F)c(O)c1)OCc1ccccc1 [Compound 19, Benzyl{4-[(2,6-difluorophenyl)carbamoyl]-3-hydroxyphenyl}carbamate]		42.9 ± 2.13	1.50	64.3 ± 4.74	-0.1205
O=C(Nc1ccc(C(=O)Nc2cc(F)cc(F)c2)c(O)c1)OCc1ccccc1 [Compound 20, Benzyl{4-[(3,5-difluorophenyl)carbamoyl]-3-hydroxyphenyl}carbamate]		208 ± 5.3	0.32	67.4 ± 5.24	0.4072
O=C(Nc1ccc(C(=O)Nc2cccc(Cl)c2Cl)c(O)c1)OCc1ccccc1 [Compound 21, Benzyl{4-[(2,3-dichlorophenyl)carbamoyl]-3-hydroxyphenyl}carbamate]		248 ± 14.9	0.36	88.8 ± 1.42	0.5497
O=C(Nc1ccc(C(=O)Nc2cc(Cl)ccc2Cl)c(O)c1)OCc1ccccc1 [Compound 22, Benzyl{4-[(2,5-dichlorophenyl)carbamoyl]-3-hydroxyphenyl}carbamate]		141 ± 7.12	0.70	99.14 ± 0.2	0.6138
O=C(Nc1ccc(C(=O)Nc2c(Cl)cccc2Cl)c(O)c1)OCc1ccccc1 [Compound 23, Benzyl{4-[(2,6-dichlorophenyl)carbamoyl]-3-hydroxyphenyl}carbamate]		117.6 ± 1.11	0.65	76.74 ± 0.74	0.8125
